Measured values reported in US6534542B2, “(2-hydroxy)ethyl-thioureas useful as modulators of α2B adrenergic receptors” (Allergen Sales, Inc., priority 2001, dated 2003).

How the values were obtained:
male Sprague-Dawley rats = assay: Sedative activity (exploratory behavior after i.p. injection); format: in vivo; details: rat, intraperitoneally, up to a dose of 300 μg/kg
Description: To test sedation, six male Sprague-Dawley rats are given up to 3 mg/kg of the test compound in a saline or DMSO vehicle by intraperitoneal injection (i.p.). Sedation is graded 30 minutes following administration of the drug by monitoring locomotor skills as follows.
The Sprague-Dawley rats are weighed and 1 ml/kg body weight of an appropriate concentration (ie. 3 mg/ml for a final dose of 3 mg/kg) drug solution is injected intraperitoneally. Typically the test compound is formulated in approximately 10 to 50% DMSO. The results are compared to controls that are injected with 1 ml/kg saline or 10 to 50% DMSO. Rat activity is then determined 30 minutes after injection of the drug solution. Rats are placed in a dark covered chamber and a digicom analyzer (Omnitech Electronic) quantitates their exploratory behavior for a five-minute period. The machine records each time the rat interrupts an array of 32 photoelectric beams in the X and Y orientation.

alpha2B receptor = molecular target: T1, alpha2B receptor (Homo sapiens, UniProt P18089); assay: Receptor Selection and Amplification Technology (RSAT) assay, alpha2B; format: cell-based; details: NIH-3T3 cells; for EC50: NA = not active at concentrations less than 10 micromolar, read-out: RSAT EC50 (nM) Alpha 2B; for fraction of activity of the standard (brimonidine) attained, Alpha 2B (number in parenthesis): ratio of maximal effect to that of standard full agonist brimonidine
T1 construct: expressed in transfected cells; host or cells: NIH-3T3
T1 sequence (P18089 1-450): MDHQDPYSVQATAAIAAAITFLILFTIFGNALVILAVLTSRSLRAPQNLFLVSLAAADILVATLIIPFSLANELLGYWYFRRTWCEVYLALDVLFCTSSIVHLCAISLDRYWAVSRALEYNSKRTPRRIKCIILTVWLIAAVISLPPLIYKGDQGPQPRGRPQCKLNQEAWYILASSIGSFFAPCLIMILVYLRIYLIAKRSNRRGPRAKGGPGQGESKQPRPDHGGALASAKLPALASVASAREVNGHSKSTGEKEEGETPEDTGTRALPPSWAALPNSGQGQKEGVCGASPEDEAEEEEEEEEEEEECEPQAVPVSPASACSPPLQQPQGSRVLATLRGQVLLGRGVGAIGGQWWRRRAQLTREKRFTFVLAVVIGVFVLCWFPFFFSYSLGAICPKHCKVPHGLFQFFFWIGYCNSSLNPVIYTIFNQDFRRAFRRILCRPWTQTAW
Source text: (§1) The compounds of the invention are agonists of α2 adrenergic receptors, particularly they tend to be specific or selective agonists of α2B and/or to a lesser extent α2C adrenergic receptors, in preference over α2A adrenergic receptors. […] Al., 1995, Pharmacol. Toxicol. 76, pp. 308-311 (incorporated herein by reference) and is also described below. Another reference pertinent to this assay is Conklin et al. (1993) Nature 363:274-6, also incorporated herein by reference.
(§2) The RSAT assay measures a receptor-mediated loss of contact inhibition that results in selective proliferation of receptor-containing cells in a mixed population of confluent cells. The increase in cell number is assessed with an appropriate transfected marker gene such as β-galactosidase, the activity of which can be easily measured in a 96-well format. Receptors that activate the G protein, Gq, elicit this response. Alpha2 receptors, which normally couple to Gi, activate the RSAT response when coexpressed with a hybrid Gq protein that has a Gi receptor recognition domain, called Gq/i5^2.
(§3) NIH-3T3 cells are plated at a density of 2×10^6 cells in 15 cm dishes and maintained in Dulbecco's modified Eagle's medium supplemented with 10% calf serum. One day later, cells are cotransfected by calcium phosphate precipitation with mammalian expression plasmids encoding p-SV-β-galactosidase (5-10 μg), receptor (1-2 μg) and G protein (1-2 μg). 40 μg salmon sperm DNA may also be included in the transfection mixture. Fresh media is added on the following day and 1-2 days later, cells are harvested and frozen in 50 assay aliquots. Cells are thawed and 100 μl added to 100 μl aliquots of various concentrations of drugs in triplicate in 96-well dishes. Incubations continue 72-96 hr at 37°. After washing with phosphate-buffered saline, β-galactosidase enzyme activity is determined by adding 200 μl of the chromogenic substrate (consisting of 3.5 mM o-nitrophenyl-β-D-galactopyranoside and 0.5% nonidet P-40 in phosphate buffered saline), incubating overnight at 30 and measuring optical density at 420 nm. The absorbance is a measure of enzyme activity, which depends on cell number and reflects a receptor-mediated cell proliferation. The EC50 and maximal effect of each drug at each alpha2 receptor is determined. The efficacy or intrinsic activity is calculated as a ratio of the maximal effect of the drug to the maximal effect of a standard full agonist for each receptor subtype. Brimonidine, also called […], the chemical structure of which is shown below, is used as the standard agonist for the alpha2A, alpha2B and alpha2C receptors. [drawing 6]
(§4) The results of the RSAT assay with several exemplary compounds of the invention are disclosed in Table 3. […] NA stands for “not active” at concentrations less than 10 micromolar. As is known EC50 is the concentration at which half of a given compound's maximal activity is observed. It can be seen from the table that the compounds of the invention are specific or selective agonists of α2B and/or α2C adrenergic receptors, with no agonist like activity or only with insignificant agonist-like activity on α2A receptors.

[1] = test system: rats with ligated L5 and L6 spinal nerves; assay: Alleviation of chronic pain: tactile allodynia after L5/L6 spinal nerve ligation (von Frey hairs); format: in vivo, rat; details: 30 minutes after administration, ±SEM
Source text: A model for chronic pain (in particular peripheral neuropathy such as causalgia) involves the surgical ligation of the L5 (and optionally the L6) spinal nerves on one side in experimental animals. Rats recovering from the surgery gain weight and display a level of general activity similar to that of normal rats. However, these rats develop abnormalities of the foot, wherein the hindpaw is moderately everted and the toes are held together. More importantly, the hindpaw on the side affected by the surgery appears to become sensitive to pain from low-threshold mechanical stimuli, such as that producing a faint sensation of touch in a human, within about 1 week following surgery. This sensitivity to normally non-painful touch is called “tactile allodynia” and lasts for at least two months. The response includes lifting the affected hindpaw to escape from the stimulus, licking the paw and holding it in the air for many seconds. None of these responses is normally seen in the control group.
Rats are anesthetized before surgery. The surgical site is shaved and prepared either with betadine or Novacaine. Incision is made from the thoracic vertebra XIII down toward the sacrum. Muscle tissue is separated from the spinal vertebra (left side) at the L4-S2 levels. The L6 vertebra is located and the transyerse process is carefully removed with a small rongeur to expose the L4-L6 spinal nerves. The L5 and L6 spinal nerves are isolated and tightly ligated with 6-0 silk thread. The same procedure is done on the right side as a control, except no ligation of the spinal nerves is performed. A complete hemostasis is confirmed, then the wounds are sutured. A small amount of antibiotic ointment is applied to the incised area, and the rat is transferred to the recovery plastic cage under a regulated heat-temperature lamp. On the day of the experiment, at least seven days after the surgery, typically six rats per test group are administered the test drugs by intraperitoneal (i.p.) injection or oral gavage. For i.p. injection, the compounds are formulated in approximately 10 to 50% DMSO and given in a volume of 1 ml/kg body weight.
Tactile allodynia is measured prior to and 30 minutes after drug administration using von Frey hairs that are a series of fine hairs with incremental differences in stiffness. Rats are placed in a plastic cage with a wire mesh bottom and allowed to acclimate for approximately 30 minutes. The von Frey hairs are applied perpendicularly through the mesh to the mid-plantar region of the rats' hindpaw with sufficient force to cause slight buckling and held for 6-8 seconds. The applied force has been calculated to range from 0.41 to 15.1 grams. If the paw is sharply withdrawn, it is considered a positive response. A normal animal will not respond to stimuli in this range, but a surgically ligated paw will be withdrawn in response to a 1-2 gram hair. The 50% paw withdrawal threshold is determined using the method of Dixon, […]. The post-drug threshold is compared to the pre-drug threshold and the percent reversal of tactile sensitivity is calculated based on a normal threshold of 15.1 grams. The results are expressed in per cent (%) MPE, where the MPE value reflects the percentage reversal of pain threshold to that of a normal animal (100%). Table 4 below indicates results of this test with Compounds 8, 34 and 40 of the invention, administered i.p., in intrathecal and oral doses.

alpha2C receptor = molecular target: T2, alpha2C receptor (Homo sapiens, UniProt P18825); assay: Receptor Selection and Amplification Technology (RSAT) assay, alpha2C; format: cell-based; details: NIH-3T3 cells; for EC50: NA = not active at concentrations less than 10 micromolar, read-out: RSAT EC50 (nM) Alpha 2C; for fraction of activity of the standard (brimonidine) attained, Alpha 2C (number in parenthesis): ratio of maximal effect to that of standard full agonist brimonidine
T2 construct: expressed in transfected cells; host or cells: NIH-3T3
T2 sequence (P18825 1-462): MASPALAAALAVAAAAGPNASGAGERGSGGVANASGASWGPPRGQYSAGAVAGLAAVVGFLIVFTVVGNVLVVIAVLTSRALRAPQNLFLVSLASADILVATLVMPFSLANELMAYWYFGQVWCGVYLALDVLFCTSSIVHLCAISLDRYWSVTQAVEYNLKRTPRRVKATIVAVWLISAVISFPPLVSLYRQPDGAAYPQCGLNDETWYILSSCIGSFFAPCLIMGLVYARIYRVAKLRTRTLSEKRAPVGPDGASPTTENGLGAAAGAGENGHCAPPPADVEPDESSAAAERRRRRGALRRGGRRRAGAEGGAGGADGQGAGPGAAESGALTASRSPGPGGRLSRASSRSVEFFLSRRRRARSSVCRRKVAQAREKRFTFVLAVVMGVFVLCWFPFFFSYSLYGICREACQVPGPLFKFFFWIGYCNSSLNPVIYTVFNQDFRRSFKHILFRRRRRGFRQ
Source text: as §1, §2, §3, §4

alpha2A receptor = molecular target: T3, alpha2A receptor (Homo sapiens, UniProt P08913); assay: Receptor Selection and Amplification Technology (RSAT) assay, alpha2A; format: cell-based; details: NIH-3T3 cells; for EC50: NA = not active at concentrations less than 10 micromolar, read-out: RSAT EC50 (nM) Alpha 2A; for fraction of activity of the standard (brimonidine) attained, Alpha 2A (number in parenthesis): ratio of maximal effect to that of standard full agonist brimonidine
T3 construct: expressed in transfected cells; host or cells: NIH-3T3
T3 sequence (P08913 1-465): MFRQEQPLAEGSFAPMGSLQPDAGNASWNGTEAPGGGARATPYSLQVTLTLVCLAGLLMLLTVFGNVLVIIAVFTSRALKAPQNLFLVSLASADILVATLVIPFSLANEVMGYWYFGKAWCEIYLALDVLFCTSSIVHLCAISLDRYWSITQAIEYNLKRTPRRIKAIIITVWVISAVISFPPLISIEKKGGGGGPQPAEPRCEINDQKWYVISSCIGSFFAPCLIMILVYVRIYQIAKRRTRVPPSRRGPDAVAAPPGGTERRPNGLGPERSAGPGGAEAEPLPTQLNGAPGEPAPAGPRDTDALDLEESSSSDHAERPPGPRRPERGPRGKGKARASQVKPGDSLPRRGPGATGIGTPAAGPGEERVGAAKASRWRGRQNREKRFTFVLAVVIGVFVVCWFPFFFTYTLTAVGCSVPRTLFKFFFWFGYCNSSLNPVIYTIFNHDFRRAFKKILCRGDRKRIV
Source text: as §1, §2, §3
The results of the RSAT assay with several exemplary compounds of the invention are disclosed in Table 3. […] NA stands for “not active” at concentrations less than 10 micromolar. […]

Row | EC50 (alpha2B receptor) | fraction of activity of the standard (brimonidine) attained, Alpha 2B (number in parenthesis) (alpha2B receptor) | EC50 (alpha2C receptor) | fraction of activity of the standard (brimonidine) attained, Alpha 2C (number in parenthesis) (alpha2C receptor) | EC50 (alpha2A receptor) | fraction of activity of the standard (brimonidine) attained, Alpha 2A (number in parenthesis) (alpha2A receptor) | Compound | sedative effect (male Sprague-Dawley rats) | % MPE ([1]; IP dose 10 μg/kg) | % MPE ([1]; IP dose 30 μg/kg) | % MPE ([1]; IP dose 100 μg/kg) | % MPE ([1]; IP dose 300 μg/kg) | % MPE ([1]; IP dose 1000 μg/kg) | % MPE ([1]; IP dose 3000 μg/kg) | % MPE ([1]; Oral dose 1000 μg/kg)
1 | 57 nM | (0.62) | – | – | – | – | C[C@H]1CC[C@H](NC(=S)NCCO)CC1 [Compound 40, 1-(2-Hydroxy-ethyl)-3-(4-methyl-cyclohexyl)-thiourea] | no sedative effect | 0.1 ± 1.8 % MPE | 42 ± 9.2 % MPE | 46 ± 7.1 % MPE | 77 ± 8.0 % MPE | 83 ± 7.0 % MPE | 90 ± 6.1 % MPE | 80 ± 6.1 % MPE
2 | 5 nM | (1.08) | 197 nM | (0.4) | 515 nM | (0.4) | CC1=C(C)C(NC(=S)NCCO)CC1 (stereo not shown) [Compound 15, 1-(2,3-Dimethyl-cyclopent-2-enyl)-3-(2-hydroxy-ethyl)-thiourea] | – | – | – | – | – | – | – | –
3 | 2 nM | (0.93) | 106 nM | (0.4) | 14 nM | (0.4) | CC[C@H]1CCCC[C@@H]1NC(=S)NCCO (relative stereo) [Compound 37, 1-(trans-2-Ethyl-cyclohexyl)-3-(2-hydroxy-ethyl)-thiourea] | – | – | – | – | – | – | – | –
